Source: patent US20160209428A1, “DIAGNOSTIC AND PREDICTIVE METABOLITE PATTERNS FOR DISORDERS AFFECTING THE BRAIN AND NERVOUS SYSTEM” (THE REGENTS OF THE UNIVERSITY OF CALIFORNIA, priority 2013, published 2016)
“Also recorded” adds a separate entry of the source.

System: maternal immune activation (MIA) mouse model
Assay: Plasma metabolomics after single-dose suramin or saline, MIA model
Assay type: in vivo
Conditions: for Pathway normalized by single-dose suramin treatment: MIA mice
Protocol: Only male animals that had been behaviorally evaluated were tested. Samples were analyzed on an AB SCIEX QTRAP 5500 triple quadrupole mass spectrometer equipped with a Turbo V electrospray ionization source, Shimadzu LC-20A UHPLC system and a PAL CTC autosampler (AB SCIEX). […] Plasma was separated by centrifugation at 600 g×5 min at 20° C. within 1 h of collection. Fresh lithium-heparin plasma was transferred to labeled tubes for storage at −80° C. for analysis. Typically, 45 μl of plasma was thawed on ice and transferred to a 1.7-ml Eppendorf tube. Two and one-half (2.5) microliters of a cocktail containing 35 commercial stable isotope internal standards and 2.5 μl of 310 stable isotope internal standards that were custom-synthesized in Escherichia coli and Saccharomyces cerevisiae by metabolic labeling with ^13C-glucose and ^13C-bicarbonate were added, mixed and incubated for 10 min at 20° C. to permit small molecules and vitamins in the internal standards to associate with plasma-binding proteins. Macromolecules (protein, DNA, RNA and so on) were precipitated by extraction with 4 volumes (200 μl) of cold (−20° C.), acetonitrile:methanol (50:50) (LCMS grade, Cat no. LC015-2.5 and GC230-4, Burdick & Jackson, Honeywell, Muskegon, Mich., USA), vortexed vigorously and incubated on crushed ice for 10 min, and then removed with centrifugation at 16000 g×10 min at 4° C. The supernatants containing the extracted metabolites and internal standards in the resulting 40:40:20 solvent mix of acetonitrile:methanol:water were transferred to labeled cryotubes and stored at −80° C. for LC-MS/MS (liquid chromatography-tandem mass spectrometry) analysis.
LC-MS/MS analysis was performed by MRM under the Analyst v1.6.1 software control in both negative and positive modes with rapid polarity switching (50 ms). Nitrogen was used for curtain gas (set to 30), collision gas (set to high) and ion source gases 1 and 2 (set to 35). The source temperature was 500° C. Spray voltage was set to −4500V in negative mode and to 5500V in positive mode. The values for Q1 and Q3 mass-to-charge ratios (mz−1), declustering potential, entrance potential, collision energy and collision cell exit potential were determined and optimized for each MRM for each metabolite. Ten microliters of extract were injected with PAL CTC autosampler into a 250 mm×2.1 mm, 5-μm Luna NH2 aminopropyl HPLC column (Phenomenex) held at 25° C. for chromatographic separation. […] The flow rate was 300 μl min^−1. All the samples were kept at 4° C. during analysis. The chromatographic peaks were identified using MultiQuant v2.1.1 (AB SCIEX), confirmed by manual inspection and the peak areas were integrated. The median of the peak area of stable isotope internal standards was calculated and used for the normalization of metabolite concentration across the samples and batches. N=6, 6.5-month-old males per group. Metabolite data were log-transformed before multivariate and univariate analyses.
Group means and s.e.m. are reported. Behavioral data involving more than two groups were analyzed by two-way analysis of variance (ANOVA) and one-way ANOVAs (GraphPad Prism 5.0d, GraphPad Software Inc., La Jolla, Calif., USA). Pair-wise post hoc testing was performed by the method of Tukey. Repeated measures ANOVA with prenatal treatment and drug as between subject factors and stimulus (mouse/cup) on time spent with mouse or cup was used as an additional test of social preference. Student's t-test was used for comparisons involving the two groups. Significance was set at P<0.05. Bonferroni post hoc correction was used to control for multiple hypothesis testing when t-tests were used to test social preference in two or more experimental groups. Metabolomic data were analyzed using multivariate partial least squares discriminant analysis, Ward hierarchical clustering and univariate one-way ANOVA with pairwise comparisons and post hoc correction by Fisher's least significant difference test in MetaboAnalyst.

Cc1ccc(C(=O)Nc2ccc(S(=O)(=O)O)c3cc(S(=O)(=O)O)cc(S(=O)(=O)O)c23)cc1NC(=O)c1cccc(NC(=O)Nc2cccc(C(=O)Nc3cc(C(=O)Nc4ccc(S(=O)(=O)O)c5cc(S(=O)(=O)O)cc(S(=O)(=O)O)c45)ccc3C)c2)c1 [Suramin, suramin]
Pathways normalized by single-dose suramin treatment, all disturbed pathways (17/18 pathways disturbed in the MIA model, plasma): 94% (17/18) | Pathway normalized by single-dose suramin treatment (Amino-sugar and galactose metabolism, plasma): Yes (1/1) | Pathway normalized by single-dose suramin treatment (Bile salt metabolism, plasma): No (0/3) | Pathway normalized by single-dose suramin treatment (Biopterin, neopterin, molybdopterin metabolism, plasma): Yes (1/1) | Pathway normalized by single-dose suramin treatment (Cholesterol, cortisol, steroid metabolism, plasma): Yes (4/4) | Pathway normalized by single-dose suramin treatment (GABA, glutamate, arginine, omithine, proline metabolism, plasma): Yes (1/1) | Pathway normalized by single-dose suramin treatment (Glycolysis and gluconeogenesis, plasma): Yes (3/3) | Pathway normalized by single-dose suramin treatment (Krebs cycle, plasma): Yes (2/2) | bile salt pathway disturbance (MIA model): not restored | Pathway normalized by single-dose suramin treatment (Microbiome metabolism, plasma): Yes (6/6) | Pathway normalized by single-dose suramin treatment (Oxalate, glyxoylate metabolism, plasma): Yes (2/2) | Pathway normalized by single-dose suramin treatment (Phospholipid metabolism, plasma): Yes (4/4) | Pathway normalized by single-dose suramin treatment (Purine metabolism, (metabolites normalized/discriminating), plasma 2 days after single dose): Yes (9/11) | Pathway normalized by single-dose suramin treatment (Pyrimidine metabolism, plasma): Yes (1/1) | Pathway normalized by single-dose suramin treatment (SAM, SAH, methionine, cysteine, glutathione metabolism, plasma): Yes (1/1) | Pathway normalized by single-dose suramin treatment (Sphingolipid metabolism, plasma): Yes (4/4) | Pathway normalized by single-dose suramin treatment (Thyroxine metabolism, plasma): Yes (1/1) | Pathway normalized by single-dose suramin treatment (Tryptophan metabolism, plasma): Yes (1/1) | Pathway normalized by single-dose suramin treatment (Vitamin B2 (riboflavin) metabolism, plasma): Yes (1/1) | Pathway normalized by single-dose suramin treatment (Vitamin B3 (niacin/NAD) metabolism, plasma): Yes (1/1) | differences in metabolic profile between control and MIA animals (plasma 2 days after single dose suramin 20 mg kg^−1 i.p.): substantially normalized; also recorded: drives the metabolism of MIA animals (PIC-Sal) strongly in the direction of controls
